Assays:
Assay type in all cases: in vivo
[1] = tested on: Alopecurus myosuroides (ALOMY); test: Example A pre-emergence herbicidal activity, glasshouse pot test; conditions: 480 h, rate 500 g/ha, evaluated 20 days later, 100=total damage to plant, 0=no damage to plant
Method: (§1) Seeds of a variety of test species were sown in standard soil in pots. After cultivation for one day (pre-emergence) or after 10 days cultivation (post-emergence) under controlled conditions in a glasshouse, the plants were sprayed with an aqueous spray solution derived from the formulation of the technical active ingredient in 0.6 ml acetone and 45 ml formulation solution containing 10.6% Emulsogen EL (Registry number 61791-12-6), 42.2% N-methylpyrrolidone, 42.2% dipropylene glycol monomethyl ether (Registry number 34590-94-8) and 0.2% X-77 (Registry number 11097-66-8). The test plants were then grown in a greenhouse under optimum conditions until, 15 days later for post-emergence and 20 days for pre-emergence, the test was evaluated (100=total damage to plant; 0=no damage to plant). Alopecurus myosuroides (ALOMY), Avena fatua (AVEFA), Lolium perenne (LOLPE), Setaria faberi (SETFA), Digitaria sanguinalis (DIGSA), Echinochloa crus-galli (ECHCG) Pre-Emergence Activity

[2] = tested on: Avena fatua (AVEFA); test: as above; conditions: 480 h, rate 500 g/ha, evaluated 20 days later, 100=total damage to plant, 0=no damage to plant
Method: as §1

[3] = tested on: Echinochloa crus-galli (ECHCG); test: as above; conditions: 480 h, rate 500 g/ha, evaluated 20 days later, 100=total damage to plant, 0=no damage to plant
Method: as §1

[4] = tested on: Digitaria sanguinalis (DIGSA); test: as above; conditions: 480 h, rate 500 g/ha, evaluated 20 days later, 100=total damage to plant, 0=no damage to plant
Method: as §1

[5] = tested on: Setaria faberi (SETFA); test: as above; conditions: 480 h, rate 500 g/ha, evaluated 20 days later, 100=total damage to plant, 0=no damage to plant
Method: as §1

[6] = tested on: Lolium perenne (LOLPE); test: as above; conditions: 480 h, rate 500 g/ha, evaluated 20 days later, 100=total damage to plant, 0=no damage to plant
Method: as §1

[7] = tested on: Alopecurus myosuroides (ALOMY); test: Example A post-emergence herbicidal activity, glasshouse pot test; conditions: 360 h, rate 500 g/ha, evaluated 15 days after spraying, read-out: herbicidal damage ALOMY (100=total damage to plant; 0=no damage to plant)
Method: as §1, with “Post Emergency” for “Pre-Emergence”

[8] = tested on: Avena fatua (AVEFA); test: as above; conditions: 360 h, rate 500 g/ha, evaluated 15 days after spraying, read-out: herbicidal damage AVEFA (100=total damage to plant; 0=no damage to plant)
Method: as §1, with “Post Emergency” for “Pre-Emergence”

[9] = tested on: Echinochloa crus-galli (ECHCG); test: as above; conditions: 360 h, rate 500 g/ha, evaluated 15 days after spraying, read-out: herbicidal damage ECHCG (100=total damage to plant; 0=no damage to plant)
Method: as §1, with “Post Emergency” for “Pre-Emergence”

[10] = tested on: Digitaria sanguinalis (DIGSA); test: as above; conditions: 360 h, rate 500 g/ha, evaluated 15 days after spraying, read-out: herbicidal damage DIGSA (100=total damage to plant; 0=no damage to plant)
Method: as §1, with “Post Emergency” for “Pre-Emergence”

[11] = tested on: Setaria faberi (SETFA); test: as above; conditions: 360 h, rate 500 g/ha, evaluated 15 days after spraying, read-out: herbicidal damage SETFA (100=total damage to plant; 0=no damage to plant)
Method: as §1, with “Post Emergency” for “Pre-Emergence”

[12] = tested on: Lolium perenne (LOLPE); test: as above; conditions: 360 h, rate 500 g/ha, evaluated 15 days after spraying, read-out: herbicidal damage LOLPE (100=total damage to plant; 0=no damage to plant)
Method: as §1, with “Post Emergency” for “Pre-Emergence”

| SMILES | pest or weed control at 500 g/ha [1] [%] | pest or weed control at 500 g/ha [2] [%] | pest or weed control at 500 g/ha [3] [%] | pest or weed control at 500 g/ha [4] [%] | pest or weed control at 500 g/ha [5] [%] | pest or weed control at 500 g/ha [6] [%] | pest or weed control at 500 g/ha [7] [%] | pest or weed control at 500 g/ha [8] [%] | pest or weed control at 500 g/ha [9] [%] | pest or weed control at 500 g/ha [10] [%] | pest or weed control at 500 g/ha [11] [%] | pest or weed control at 500 g/ha [12] [%] |
| --- | --- | --- | --- | --- | --- | --- | --- | --- | --- | --- | --- | --- |
| Cc1ccc(-c2ccc(Cl)cc2)cc1C1=C(O)CC(CC2CCOC2)CC1=O (centres unmarked) [Compound A-2] | 20 | 40 | 100 | 50 | 60 | 10 | 70 | 40 | 100 | 90 | 90 | 50 |
| CCc1cc(C)cc(CC)c1C1=C(O)CC(CC2CCOC2)CC1=O (centres unmarked) [Compound A-3] | 80 | 90 | 100 | 100 | 100 | 100 | 80 | 80 | 100 | 100 | 80 | 80 |
| CCc1ccc(-c2ccc(Cl)cc2)cc1C1=C(O)CC(CC2CCOC2)CC1=O (centres unmarked) [Compound A-4] | 60 | 40 | 100 | 70 | 80 | 30 | 80 | 70 | 100 | 100 | 100 | 70 |
| CCc1cc(C)cc(CC)c1C1=C(O)CC(CC2CCOCC2)CC1=O (centres unmarked) [Compound A-5, 2-(2,6-diethyl-4-methylphenyl)-5-(tetrahydropyran-4-ylmethyl)cyclohexane-1,3-dione] | 100 | 100 | 100 | 100 | 100 | 100 | 90 | 90 | 100 | 90 | 100 | 90 |
| CCc1cc(C)cc(CC)c1C1=C(O)CC(CC2OCCO2)CC1=O (centres unmarked) [Compound A-6, 2-(2,6-diethyl-4-methylphenyl)-5-([1,3]dioxolan-2-ylmethyl)cyclohexane-1,3-dione] | 90 | 60 | 100 | 100 | 80 | 70 | 80 | 100 | 100 | 90 | 80 | 80 |
| CCc1cc(C)cc(CC)c1C1=C(O)CC(CC2OCCCO2)CC1=O (centres unmarked) [Compound A-7] | 100 | 100 | 100 | 100 | 80 | 100 | 90 | 100 | 100 | 80 | 80 | 90 |
| CCc1cc(C)cc(CC)c1C1=C(O)CC(CC2OCC(C)(C)CO2)CC1=O (centres unmarked) [Compound A-8] | 100 | 50 | 70 | 100 | 70 | 100 | 60 | 50 | 100 | 70 | 70 | 80 |
| Cc1cc(C)c(C2=C(O)CC(CC3CCOCC3)CC2=O)c(C)c1 (centres unmarked) [Compound A-9] | 100 | 60 | 70 | 100 | 90 | 100 | 80 | 70 | 90 | 70 | 80 | 80 |
| Cc1cc(C)c(C2=C(O)CC(C(C)C3CCOCC3)CC2=O)c(C)c1 (centres unmarked) [Compound A-10] | 50 | 50 | 80 | 60 | 60 | 70 | 80 | 80 | 50 | 70 | 50 | 60 |
| CCc1cc(C)cc(CC)c1C1=C(O)CC(C(C)C2CCOCC2)CC1=O (centres unmarked) [Compound A-11] | 100 | 100 | 70 |  |  | 100 | 100 | 90 | 100 | 90 | 80 | 90 |
| CCc1cc(CC)c(C2=C(O)CC(C(C)C3CCOCC3)CC2=O)c(CC)c1 (centres unmarked) [Compound A-12] |  | 40 | 70 | 70 | 60 | 100 | 80 | 80 | 80 | 70 | 70 | 80 |
| CCc1ccc(-c2ccc(Cl)cc2)cc1C1=C(O)CC(C(C)C2CCOCC2)CC1=O (centres unmarked) [Compound A-13] | 30 | 20 | 30 | 30 | 30 | 10 | 80 | 30 | 100 | 90 | 50 | 70 |
| CCc1cc(C)cc(CC)c1C1=C(O)CC(CC2CCSCC2)CC1=O (centres unmarked) [Compound A-14] | 80 | 70 | 80 | 100 | 100 | 90 | 100 | 100 | 100 | 70 | 100 | 90 |
| CCc1cc(C)cc(CC)c1C1=C(O)CC(CC2CC[S+]([O-])CC2)CC1=O (centres unmarked) [Compound A-16] | 100 | 90 | 100 | 100 |  | 100 | 60 | 90 | 70 | 100 | 80 | 90 |

Reference: US8735322B2, “Herbicides” (Syngenta Limited, priority 2008, dated 2014)
